Data as given in US20250049800A1, “VCP/p97 INHIBITOR FOR THE TREATMENT OF CANCER” (CASI Pharmaceuticals, Inc., priority 2021, published 2025).

Tests used:
HCC1937 (Breast) = assay: Cell Titer-Glo viability: single agent IC50 and Compound 1 + PARP inhibitor matrix (Bliss); format: cell-based; conditions: Homo sapiens, single agent, read-out: Absolute IC50
Experimental: (§1) The PARP inhibitors used for the study were talazoparib, olaparib and niraparib. […] was used as a reference control. […] For each drug agent on its own, IC50 values in each cell line were determined. Interactions of the combinations of Compound 1 and each PARP inhibitor was assessed as follows: […] Cisplatin and culture media were used as positive and negative control, respectively. The combination activities were assessed using CrownSyn software to determine synergy scores by Bliss Independence and Loewe additivity methods. […] Synergy scores calculated by both Bliss independence model and Loewe additivity model (see Greco, […]., Poch, G., Suhnel, J., Kundi, M., & Bodeker, W. (1992). Consensus on concepts and terminology for combined-action assessment: the […] agreement. […] Without being bound by theory, the Bliss independence model is often applied to asses synergy for non-interacting drugs that elicit their responses independently, e.g., by targeting separate pathways, whereas the Loewe additivity model may be more compatible where both drugs have similar modes of action on the same targets or pathways.

HCC1806 (Breast) = assay: as above; format: cell-based; conditions: Homo sapiens, 72 h, single agent, read-out: Absolute IC50
Experimental: as §1

OVCAR-8 (Ovary) = assay: as above; format: cell-based; conditions: Homo sapiens, 72 h, single agent, read-out: Absolute IC50
Experimental: as §1

DU4475 (Breast) = assay: as above; format: cell-based; conditions: Homo sapiens, DU-4475, 72 h, single agent, read-out: Absolute IC50
Experimental: as §1

[1] = tested on: DoTc2 4510 (Uterus/Cervix); assay: as above; format: cell-based; conditions: Homo sapiens, single agent, read-out: Absolute IC50
Experimental: as §1

SK-OV-3 (Ovary) = assay: as above; format: cell-based; conditions: Homo sapiens, single agent, read-out: Absolute IC50
Experimental: as §1

Activated Caspase 3 = Activated Caspase 3 biomarker in patient blood samples; format: in vivo, human; conditions: cohorts 4 and 5; one patient
Experimental: Two biomarkers were assessed in patients from cohorts 4 and 5. K48-Ub (ubiquitin) and Activated Caspase 3 biomarkers were analyzed from 5 patient blood samples.

[2] = Phase I study: safety, adverse events and visual symptoms; format: in vivo, human
Experimental: Similar dosing may be used in the dose expansion part of the study. BID dosing may be also tested depending on initial PK assessments. Participants were evaluated regularly for safety assessments including physical examinations and laboratory testing. Bone marrow aspirates and/or biopsies are performed at regular intervals, including for assessment of tumor response as per 2017 European LeukemiaNet (ELN) response criteria for AML or 2006 revised International Working Group (IWG) response criteria for MDS. Peripheral blood samples are collected in Cycle 1 for intensive PK testing and PD biomarker assessments. Additional intensive PK testing is collected for any participants undergoing intra-patient dose escalation.

SMILES: Cc1cc2c(C(N)=O)cccc2n1-c1nc2c(c(NCc3ccccc3)n1)CCCN2 [Compound 1, 1-(4-(benzylamino)-5,6,7,8-tetrahydropyrido[2,3-d]pyrimidin-2-yl)-2-methyl-1H-indole-4-carboxamide]
- IC50 (HCC1937 (Breast)): 559 nM
- IC50 (HCC1806 (Breast)): 437 nM
- IC50 (OVCAR-8 (Ovary)): 200 nM
- IC50 (DU4475 (Breast)): 343 nM
- IC50 [1]: 513 nM
- IC50 (SK-OV-3 (Ovary)): 1790 nM
- Activated Caspase 3, fold increase (Activated Caspase 3): 9 fold
- adverse events ([2]; cohorts dosed 25 mg to 450 mg QD): No adverse events were observed
- visual adverse events at plasma exposure equivalent to CB-5083 ([2]; highest doses): no lasting symptoms
- symptoms of visual impairment ([2]; lower dose cohorts): No symptoms of visual impairment
- visual adverse events at plasma exposure equivalent to CB-5083 ([2]; lower doses): no symptoms of visual impairment or other visual adverse events
- visual symptoms ([2]; two patients in cohort X): low-grade visual symptoms on the day of dosing that did not persist
